Assays:
[1] = test system: acetyl- and butyrylcholinesterase; assay: Cholinesterase inhibition in mice after the final dose; assay type: in vivo, mouse; conditions: 24 hours following the final dose
Excerpt: The same model of concussive head injury described above with respect to FIG. 7 was used in the experiments described below with respect to FIGS. 8 and 9. […] Previous studies of drug and metabolite concentrations have shown acetylcholinesterase inhibition to be present when any concentration of drug or metabolite have been detected. […] Drug and its metabolites have been shown undetectable when no anticholinesterase activities are present.

SH-SY5Y neuronal cells = assay: Phenserine plus anti-inflammatory drug, oxidative stress and trophic effects in SH-SY5Y cells (MTS assay)
Procedure: Human SH-SY5Y neuronal cells were seeded in 96-well plates at a density of 1×10^5 cells per well and allowed to grow for 24 hr. […] […] At 18 hr thereafter a MTS assay was performed per the manufacturers protocol (Abcam, Cambridge, Mass.) to measure cell viability.
For example, instead of aspirin (as shown in FIG. 3A), an NSAID, naproxen, was used under the same experimental conditions at concentrations in FIGS. 3B-3D.

SH-SY5Y cells [2] = assay: Oxygen-glucose deprivation/reperfusion (OGD/RP) damage on SH-SY5Y cells; assay type: cell-based, human
Procedure: (§1) Briefly, Human neuroblastoma SH-SY5Y cells were incubated in oxygen-glucose deprivation and hypoxia using serum- and glucose-free media and 95% N2 and 5% CO2 for 5 minutes. Adult male Sprague-Dawley rats (250 to 350 g weight) were anesthetized with chloral hydrate (0.4 g/kg, intraperitoneally) and right middle cerebral artery (MCA) was ligated for 60 minutes. The core body temperature of animals was maintained at 37° C. throughout the procedure.

[3] = Plasma concentrations of phenserine and its metabolites in beagle dog plasma; assay type: in vivo
wild-type mice = assay: Concussive mTBI in wild-type mice, immunohistochemistry 72 hr post injury; assay type: in vivo, mouse; conditions: 72 hr post TBI
Procedure: FIG. 18 illustrates (−)-Phenserine administration preventing mTBI-induced neurodegeneration in hippocampus and lateral cortex (72 hr post concussive TBI). […] Representative images of FJC staining in hippocampus (CA1) Magnification 60× (n=5/group; *p<0.05, **p<0.01, ***p<0.001 vs. Control (CTRL) sham by Tukey's post hoc test; ^^p<0.01 vs. mTBI alone by Tukey's post hoc test).
Neuroinflammation was evaluated by counting activated microglial cells experessing the marker IBA1 as well as by counting microglial cells co-expressing IBA1 and immunoreactivity for the pro-inflammatory cytokine TNF-α (Anti-IBA1 antibody: Abcam; anti-TNF-α antibody: Abbiotec). As evident in FIG. 20, activated microglial (IBA1 positive (+) staining) cells—a classical marker of neuroinflammation—were elevated in wild-type mice challenged with mTBI. (−)-Phenserine post-treatment mitigated this mTBI-induced effect (FIG. 20). Likewise, mTBI challenge induced a rise in IBA1+ activated microglial cells expressing the pro-inflammatory marker TNF-α (FIG. 21), which was similarly mitigated by (−)-phenserine post-treatment.
(−)-Phenserine mitigates losses in synaptic integrity in wild and Tg mice subjected to weight drop injury. To evaluate whether mTBI-induced elevations in markers of cell loss (FJC) and neuroinflammation (TNF-α and IBA1+) are allied with a loss of synaptic integrity (which associates with cognitive loss (Wakade et al., 2010)), post- and pre-synaptic protein markers of synaptic integrity (post-synaptic density-95 (PSD-95) and synaptophysin, respectively) were immunohistochemically stained and quantified in control (w/o head injury) and mTBI challenged mice post-treated with vehicle or (−)-phenserine. […] These declines were mitigated by post treatment with (−)-phenserine. An alike trend was evident in mTBI challenged APP/PS1 AD Tg mice, and these reductions in post- and presynaptic proteins were similarly mitigated by post-treatment with (−)-phenserine (FIG. 25)

[4] = test system: cultured hippocampal neurons; assay: Glutamate-induced excitotoxicity in cultured neurons; assay type: cell-based, rat (Sprague Dawley); conditions: phenserine 5 μM, glutamate 50 μM, 24 hr
Procedure: Briefly, cultured hippocampal neurons in triplicate were prepared from 18-20 day rat (Sprague Dawley) embryos and were cultured for 7 days. […] Neuronal viability was assessed 24 hr after addition of glutamate. The results are plotted as percent neuronal survival±SEM. […] Twenty-four hours later cell viability was quantified (by MTS assay—using, for example but not limited to, the CellTiter 96 Aqueous One Solution Cell Proliferation Assay kit (Promega, Madison, Wis., USA) according to the manufacturer's instructions).

Sprague-Dawley rats = assay: Focal cerebral ischemia model (MCA ligation), pre-treatment; assay type: in vivo, rat
Procedure: as §1

SH-SY5Y cells [5] = assay: Cell proliferation of SH-SY5Y cells (MTS assay); assay type: cell-based, human; conditions: 30 uM, 24 hr
Procedure: SHSYSY cells were exposed for 24 hr to 30 uM concentration of (−)- and (+)-phenserine. After 24 hr cell proliferation was determined by MTS assay. *P,0.05, **p,0.01, and ***p,0.001 compared to control samples without drug.

SH-SY5Y cells [6] = assay: H2O2-induced oxidative stress in SH-SY5Y cells (MTS assay); assay type: cell-based, human; conditions: phenserine 10 and 30 μM, 100 μM H2O2, 24 hr
[7] = test system: human peripheral blood mononuclear cells (PBMCs); assay: PHA-induced cytokine production in human PBMCs; assay type: cell-based; conditions: phenserine 100 nM to 10 μM, 24 hr, PHA 3 μg/mL
Excerpt: The detection limit for these assays is <1 pg/mL for IL-1beta and <3 pg/mL for IL-10. The intra- and inter-assay CV was <10%. All results are expressed in picograms per milliliter.

Lipophilicity (Log D) = assay type: physicochemical
[8] = Tolerability of immediate release phenserine in patients; assay type: in vivo, human; conditions: immediate release dose of 20 mg
[9] = pre-treatment, brain and SH-SY5Y cells

Q: For `CN1CC[C@@]2(C)c3cc(OC(=O)Nc4ccccc4)ccc3N(C)[C@@H]12` [phenserine, (−)-phenylcarbamoyleseroline], which “inhibition of acetyl- and butyrylcholinesterase” value [1] is on record?
A: no inhibition

Q: What about the “oxidative stress-induced cellular death (cell viability)” value (SH-SY5Y neuronal cells; ASA 10^−5 M, (−)-Phen 10^−7 M, 10^−6 M, H2O2 50 μM, 18 hr) of the same compound?
A: no activity

Q: And the “loss in cell viability following oxidative stress” value (SH-SY5Y neuronal cells; H2O2 300 μM, phenserine 100 nM, naproxen 10 to 1000 nM)?
A: does not statistically mitigate

Q: And the “neurotrophic effect (cell survival)” value (SH-SY5Y neuronal cells; phenserine 10 nM, naproxen 100 nM)?
A: no neurotrophic action

Q: And the “matrix metallopeptidase 9 (MMP-9)” value (SH-SY5Y cells [2])?
A: reduced

Q: What about the “Average Plasma Concentrations” value ([3]; Hour 1) of the same compound?
A: 4.95 ng/mL

Q: What about the “Average Plasma Concentrations” value ([3]; Hour 2) of the same compound?
A: 15.4 ng/mL

Q: What about the “Average Plasma Concentrations” value ([3]; Hour 3) of the same compound?
A: 0.71 ng/mL

Q: What about the “Average Plasma Concentrations” value ([3]; Hour 4) of the same compound?
A: 0.97 ng/mL

Q: And the “mTBI-induced neurodegeneration (Fluoro-Jade C+ cells)” value (wild-type mice; 5 mg/kg BID, hippocampus and lateral cortex)?
A: fully counteracted

Q: What about the “mTBI-induced reductions in synaptophysin and PSD-95” value (wild-type mice) of the same compound?
A: mitigated

Q: And the “mTBI-induced activation of microglia (IBA1+ cells)” value (wild-type mice; hippocampus and lateral cortex)?
A: mitigated

Q: What about the “mTBI-induced elevations in TNF-α within microglia (co-localized TNF-α and IBA1+ cells)” value (wild-type mice; hippocampus and lateral cortex) of the same compound?
A: mitigated

Q: And the “cell viability (percent neuronal survival)” value [4]?
A: 73.5 % of control levels

Q: What about the “B-cell lymphoma 2 (Bcl-2) expression” value (Sprague-Dawley rats; pre-treatment) of the same compound?
A: increased

Q: What about the body symmetry (Sprague-Dawley rats; pre-treatment) of the same compound?
A: improved

Q: And the “brain-derived neurotrophic factor (BDNF) expression” value (Sprague-Dawley rats; pre-treatment)?
A: increased

Q: What about the cell death (Sprague-Dawley rats; pre-treatment) of the same compound?
A: reduced

Q: What about the “glial fibrillary acidic protein (GFAP) expression” value (Sprague-Dawley rats; pre-treatment) of the same compound?
A: decreased

Q: What about the brain infarction area (Sprague-Dawley rats; pre-treatment twice daily prior to MCA occlusion) of the same compound?
A: reduced

Q: And the “activated-caspase 3 levels” value (Sprague-Dawley rats; [9])?
A: decreased

Q: What about the “amyloid precursor protein (APP) expression” value (Sprague-Dawley rats; [9]) of the same compound?
A: decreased

Q: What about the “cell proliferation (neurotrophic actions)” value (SH-SY5Y cells [5]) of the same compound?
A: increasing cellular proliferation

Q: What about the “H2O2-mediated neuronal toxicity (cell viability)” value (SH-SY5Y cells [6]) of the same compound?
A: significantly ameliorated

Q: And the “PHA-induced anti-inflammatory IL-10 levels” value [7]?
A: without impacting

Q: And the “PHA-induced elevation in pro-inflammatory IL-1β levels” value [7]?
A: substantially mitigated

Q: What about the logD (Lipophilicity (Log D)) of the same compound?
A: 2.2

Q: And the “negative consequences in patients” value [8]?
A: negative consequences (e.g., vomiting, diarrhea, nausea, etc.) have been observed

Reference: patent US10864192B2, “Compositions and methods for inhibiting brain trauma-induced neurodegeneration and related conditions” (priority 2016, dated 2020)
